Measured values as given in patent publication US6914045B2, “Glycopeptide antibiotics” (Wyeth Holdings Corporation, priority 2001, dated 2005).
Converted amounts (≈) assume the structure as drawn.

Key:
Test in all cases: in vitro antibacterial evaluation, MIC by broth dilution
Assay type in all cases: cell-based
Enterococcus sp. = conditions: broth dilution, 18 hours at 35° C.
Description: (§1) Methods for in vitro Antibacterial Evaluation (Table 1)
(§2) The minimum inhibitory concentration (MIC), the lowest concentration of the antibiotic which inhibits growth of the test organism, is determined by the broth dilution method using Muller-Hinton II […] (Baltimore Biological Laboratories) following the recommendations of the National Committee for Clinical Laboratory Standards [Methods for dilution antimicrobial susceptibility tests for bacteria that grow aerobically, approved standard M7-A2, National Committee for Clinical Laboratory Standards, Villanova, Pa.].
(§3) An inoculum level of 5×10^5 CFU/mL, and a range of antibiotic concentrations (64-0.06 μg/mL) is used. […] The test organisms include a spectrum of Gram-positive bacteria comprised of Staphylococcus sp., Streptococcus sp. and Enterococcus sp. These organisms include recent clinical isolates that are resistant to methicillin, penicillin and/or vancomycin.

Staphylococcus sp. = tested on: Staphylococcus sp.
Description: as §1, §2, §3

Escherichia coli = conditions: 18 hours at 35° C.
Description: as §2, §3

[1] = Enterococcus faecalis (ATCC 29212)
[2] = Enterococcus faecalis (GC 2242)
[3] = Enterococcus faecalis (GC 4552)
[4] = broth dilution, 18 hours at 35° C.
[5] = broth dilution, 18 hours at 35° C.; strain GC 4537
[6] = broth dilution, 18 hours at 35° C.; strain GC 4538
[7] = broth dilution, 18 hours at 35° C.; strain GC 4547
[8] = strain ATCC 29213; broth dilution, 18 hours at 35° C.
[9] = strain GC 1131; broth dilution, 18 hours at 35° C.
[10] = strain GC 4535; broth dilution, 18 hours at 35° C.
[11] = strain GC 4536; broth dilution, 18 hours at 35° C.

Structure (SMILES) | MIC Enterococcus faecalis (ATCC 29212) (Enterococcus sp.; [1]) [µg/mL] | MIC Enterococcus faecalis (GC 2242) (Enterococcus sp.; [2]) [µg/mL] | MIC Enterococcus faecalis (GC 4552) (Enterococcus sp.; [3]) [µg/mL] | MIC Enterococcus faecalis (ATCC 29212) (Enterococcus sp.) [µg/mL] | MIC Enterococcus faecalis (GC 2242) (Enterococcus sp.) [µg/mL] | MIC Enterococcus faecalis (GC 4552) (Enterococcus sp.) [µg/mL] | MIC Coagulase Negative Staphylococcus (GC 4537) (Staphylococcus sp.; [4]) [µg/mL] | MIC Coagulase Negative Staphylococcus (GC 4538) (Staphylococcus sp.; [4]) [µg/mL] | MIC Coagulase Negative Staphylococcus (GC 4547) (Staphylococcus sp.; [4]) [µg/mL] | MIC Coagulase Negative Staphylococcus (GC 4537) (Staphylococcus sp.; [5]) [µg/mL] | MIC Coagulase Negative Staphylococcus (GC 4538) (Staphylococcus sp.; [6]) [µg/mL] | MIC Coagulase Negative Staphylococcus (GC 4547) (Staphylococcus sp.; [7]) [µg/mL] | MIC Staphylococcus aureus (ATCC 29213) (Staphylococcus sp.; [8]) [µg/mL] | MIC Staphylococcus aureus (GC 1131) (Staphylococcus sp.; [9]) [µg/mL] | MIC Staphylococcus aureus (GC 4535) (Staphylococcus sp.; [10]) [µg/mL] | MIC Staphylococcus aureus-SMITH (GC 4536) (Staphylococcus sp.; [11]) [µg/mL] | MIC Escherichia coli (GC 4559) (Escherichia coli) [µg/mL] | MIC Escherichia coli (GC 4560) (Escherichia coli) [µg/mL] | also measured
CC(c1ccccc1)C1NC(=O)CNC(=O)C(CO)NC(=O)C(C(O)C2CNC(=N)N2C2OC(CO)C(O)C(O)C2O)NC(=O)C(C(O)C2CNC(=N)N2)NC(=O)C(Cc2ccc(OC3OC(COC(=O)Cc4ccccc4)C(OC4OC(CO)C(O)C(O)C4O)C(O)C3O)cc2)NC1=O (stereo not drawn) [Example 98b] | 64 (≈ 45.3 µM) | 64 (≈ 45.3 µM) | 128 (≈ 90.6 µM) | 64 (≈ 45.3 µM) | 64 (≈ 45.3 µM) | 128 (≈ 90.6 µM) | 16 (≈ 11.3 µM) | 8 (≈ 5.66 µM) | 8 (≈ 5.66 µM) | 16 (≈ 11.3 µM) | 8 (≈ 5.66 µM) | 8 (≈ 5.66 µM) | 16 (≈ 11.3 µM) | 16 (≈ 11.3 µM) | 16 (≈ 11.3 µM) | 8 (≈ 5.66 µM) | >128 | 2 (≈ 1.42 µM) | –
CCCCCCC(=O)OCC1OC(Oc2ccc(CC3NC(=O)C(C(C)c4ccccc4)NC(=O)CNC(=O)C(CO)NC(=O)C(C(O)C4CNC(=N)N4C4OC(CO)C(O)C(O)C4O)NC(=O)C(C(O)C4CNC(=N)N4)NC3=O)cc2)C(O)C(O)C1OC1OC(CO)C(O)C(O)C1O (stereo not drawn) [Example 97a, Cyclo[glycyl-β-methylphenylalanyl-O-(6-O-heptanoyl-4-O-hexopyranosylhexopyranosyl)-tyrosyl-3-(2-iniinoimidazolidin-4-yl)seryl-3-(3-hexopyranosyl-2-iminoimidazolidin-4-yl)-serylseryl]] | 8 (≈ 5.68 µM) | 4 (≈ 2.84 µM) | 16 (≈ 11.4 µM) | 8 (≈ 5.68 µM) | 4 (≈ 2.84 µM) | 16 (≈ 11.4 µM) | 4 (≈ 2.84 µM) | 2 (≈ 1.42 µM) | 2 (≈ 1.42 µM) | 4 (≈ 2.84 µM) | 2 (≈ 1.42 µM) | 2 (≈ 1.42 µM) | 1 (≈ 0.711 µM) | 2 (≈ 1.42 µM) | 2 (≈ 1.42 µM) | 0.5 (≈ 0.355 µM) | >64 | 1 (≈ 0.711 µM) | –
CCCCCC(=O)OCC1OC(Oc2ccc(CC3NC(=O)C(C(C)c4ccccc4)NC(=O)CNC(=O)C(CO)NC(=O)C(C(O)C4CNC(=N)N4C4OC(CO)C(O)C(O)C4O)NC(=O)C(C(O)C4CNC(=N)N4)NC3=O)cc2)C(O)C(O)C1OC1OC(CO)C(O)C(O)C1O (stereo not drawn) [Example 95a, Cyclo[glycyl-β-methylphenylalanyl-O-(6-O-hexanoyl-4-O-hexopranosylhexopyranosyl)-tyrosyl-3-(2-iminoimidazolidin-4-yl)sery-3-(3-hexopyranosyl-2-iminoimidazolidin-4-yl)-serylseryl]] | 32 (≈ 23 µM) | – | 32 (≈ 23 µM) | 32 (≈ 23 µM) | 16 (≈ 11.5 µM) | 32 (≈ 23 µM) | 8 (≈ 5.74 µM) | 4 (≈ 2.87 µM) | 4 (≈ 2.87 µM) | – | – | – | 4 (≈ 2.87 µM) | 4 (≈ 2.87 µM) | 8 (≈ 5.74 µM) | 4 (≈ 2.87 µM) | >64 | 2 (≈ 1.44 µM) | MIC Enterococcus faecalis (GC 2242) (Enterococcus sp.; strain GC 2242): 16 µg/mL (≈ 11.5 µM); MIC Coagulase Negative Staphylococcus (GC 4537) (Staphylococcus sp.; strain GC 4537; broth dilution, 18 hours at 35° C.): 8 µg/mL (≈ 5.74 µM); MIC Coagulase Negative Staphylococcus (GC 4538) (Staphylococcus sp.; strain GC 4538; broth dilution, 18 hours at 35° C.): 4 µg/mL (≈ 2.87 µM); MIC Coagulase Negative Staphylococcus (GC 4547) (Staphylococcus sp.; strain GC 4547; broth dilution, 18 hours at 35° C.): 4 µg/mL (≈ 2.87 µM)
CCCCCCC(=O)OCC1OC(N2C(=N)NCC2C(O)C2NC(=O)C(C(O)C3CNC(=N)N3)NC(=O)C(Cc3ccc(OC4OC(CO)C(OC5OC(CO)C(O)C(O)C5O)C(O)C4O)cc3)NC(=O)C(C(C)c3ccccc3)NC(=O)CNC(=O)C(CO)NC2=O)C(O)C(O)C1O (stereo not drawn) [Example 97, Cyclo[glycyl-β-methylphenylalanyl-O-(4-O-hexopyranosylhexolpyranosyl)tyrosyl-3-(2-iminoimidazolidin-4-yl)seryl-3-[3-(6-O-heptanoylhexopyranosyl)-2-iminoimidazolidin-4-yl]seryl-seryl]] | >64 | >64 | >64 | >64 | >64 | >64 | >64 | >64 | >64 | >64 | >64 | >64 | >64 | >64 | >64 | >64 | >64 | 2 (≈ 1.42 µM) | –
CC(c1ccccc1)C1NC(=O)CNC(=O)C(CO)NC(=O)C(C(O)C2CNC(=N)N2C2OC(CO)C(O)C(O)C2O)NC(=O)C(C(O)C2CNC(=N)N2)NC(=O)C(Cc2ccc(OC3OC(CO)C(OC4OC(COC(=O)Cc5ccccc5)C(O)C(O)C4O)C(O)C3O)cc2)NC1=O (stereo not drawn) [Example 98c] | 16 (≈ 11.3 µM) | 8 (≈ 5.66 µM) | 16 (≈ 11.3 µM) | 16 (≈ 11.3 µM) | 8 (≈ 5.66 µM) | 16 (≈ 11.3 µM) | 2 (≈ 1.42 µM) | 1 (≈ 0.708 µM) | 1 (≈ 0.708 µM) | 2 (≈ 1.42 µM) | 1 (≈ 0.708 µM) | 1 (≈ 0.708 µM) | 2 (≈ 1.42 µM) | 2 (≈ 1.42 µM) | 4 (≈ 2.83 µM) | 2 (≈ 1.42 µM) | 64 (≈ 45.3 µM) | 0.5 (≈ 0.354 µM) | –
